Assay results taken from patent US11753407B2, “Compounds for treating spinal muscular atrophy” (PTC Therapeutics, Inc., priority 2012, dated 2023).

Legend:
[1] = test system: gems (Smn protein nuclear foci) in SMA patient fibroblast cells (GM03813); assay: Gems count (Smn-dependent nuclear speckle count) assay; format: cell-based, human; conditions: SMA Type 1 patient cells, 48 hours, relative to DMSO (FIG. 9)
Description: The level of Smn protein directly correlates with the amount of nuclear foci, also known as gems, produced upon staining the cell with a fluorescently labeled anti-Smn antibody (Liu and Dreyfuss, EMBO J., 1996, 15:3555). Gems are multi-protein complexes whose formation is nucleated by the Smn protein and the gems count assay is used to evaluate the level of Smn protein in the cell. As described herein, the gems count assay is used to quantify the level of Smn protein in SMA patient fibroblast cells treated with a test compound.
Protocol: Cells are thawed and incubated in DMEM-10% FBS for 72 hours, then trypsinized, counted and resuspended to 100,000 cells/mL in DMEM-10% FBS. The cell suspension (2 mL) is plated in a 6-well cell culture plate with a sterile cover slip and incubated for 3 to 5 hours. Test compounds are serially diluted 3.16-fold in 100% DMSO to generate a 7-point dilution curve. […]
Cell culture medium is aspirated from the wells containing cover slips and gently washed three times with cold PBS. […] The number of gems is counted per >150 nuclei and % activation is calculated using DMSO and 10 nM bortezomib as controls. For each test compound, the cells are examined at all wavelengths to identify test compounds with inherent fluorescence.

[2] = test system: Smn protein produced from the SMN2 gene; assay: Smn protein in tissues of neonatal Δ7 SMA mice; format: in vivo; conditions: neonatal SMA Δ7 homozygous knockout mice, IP QD PND 3 to PND 9, brain, spinal cord
Method: This Smn protein assay compares tissues from test compound treated mice with those from DMSO vehicle treated mice to determine the increase in levels of Smn protein produced from the human SMN2 gene.
(§1) Protocol. The tissue samples in Safe-Lock tubes are weighed and the volume of RIPA buffer containing the protease inhibitor cocktail is added based on the weight to volume ratios for each type of tissue: Brain (50 mg/mL), Muscle (50 mg/mL) and Spinal Cord (25 mg/mL).
(§2) Tissues are homogenized using the TissueLyzer by bead milling. 5 mm stainless steel beads are added to the sample and shaken vigorously for 5 minutes at 30 Hz in the TissueLyzer. […] Fluorescence for each well of the plate at 665 nm and 620 nm is measured on an EnVision multilabel plate reader (Perkin-Elmer). The total protein in the tissue homogenate is measured using the BCA assay according to the manufacturer's protocol.
(§3) The normalized fluorescence signal is calculated for each sample, Blank and vehicle control well by dividing the signal at 665 nm by the signal at 620 nm. Normalizing the signal accounts for possible fluorescence quenching due to the matrix effect of the tissue homogenate. […] The ΔF value for each tissue sample well is divided by the total protein quantity (determined using the BCA assay) for that tissue sample. […]

Smn protein = Smn protein levels in tissues of Δ7 SMA mice of the survival study; format: in vivo; conditions: spinal cord
Method: as §1
as §2, with “TissueLyzer. The samples are then centrifuged for 20 minutes at 14,000×g in a microcentrifuge and the homogenates transferred to the PCR plate.” for “TissueLyzer.”
as §3
Protocol. […] The number of surviving mice in each group is recorded every day and plotted as a percent of total number of mice. […]

| Compound | gems (nuclear speckle count) [1] | total protein normalized Smn level ([2]; muscle, skin (FIGS. 12a-d)) | Smn protein expression (Smn protein; IP 10 mg/kg QD PND 3-30, then orally 30 mg/kg BID PND 31-156, brain, muscle (FIG. 16a)) | total protein normalized Smn level ([2]; muscle (FIGS. 12e-g)) | Smn protein expression (Smn protein; IP 3 mg/kg QD PND 3-23, orally 10 mg/kg BID PND 24-88, orally 20 mg/kg QD PND 89-185, brain, muscle (FIG. 16b)) |
| --- | --- | --- | --- | --- | --- |
| COc1ccc(-c2cc(=O)n3cc(N4CCNCC4)ccc3n2)cc1OC [Cpd 6, 2-(3,4-dimethoxyphenyl)-7-(piperazin-1-yl)-4H-pyrido[1,2-a]pyrimidin-4-one] | progressively more gems | dose dependently increased in brain, spinal cord, muscle, and skin tissues | increased Smn protein expression in brain, spinal cord, and muscle tissues | – | – |
| Cc1cn2nc(-c3cc(=O)n4cc(N5CCN(C)CC5)ccc4n3)cc2c(C)n1 [Cpd 170, 2-(4,6-dimethylpyrazolo[1,5-a]pyrazin-2-yl)-7-(4-methylpiperazin-1-yl)-4H-pyrido[1,2-a]pyrimidin-4-one] | progressively more gems | – | – | dose dependently increased | increased Smn protein expression in brain, spinal cord, and muscle tissues |
